In patent US20060051739A1, “Methods and composition for visualizing and interfering with chromosomal tethering of extrachromosomal molecules” (Salk Institute for Biological Studies, priority 2000, published 2006):

Tested on: COLO320DM cells with lacO/lacR-GFP labelled DMs
Test: Microtubule inhibitor treatment of cells with lacO/lacR-GFP labelled DMs, immunofluorescence microscopy
Type: cell-based, human
Conditions: for appearance of microtubules (immunofluorescence): taxol 10 μM or vinblastine 10 μg/ml for 3 hours prior to harvesting, anti α-tubulin staining; for chromosome organization / association of DMs with chromosomes / peripheral localization of DMs on mitotic chromosomes: taxol 10 μM or vinblastine 10 μg/ml for 3 hours; for chromosome organization: DAPI counterstain; for association of DMs with chromosomes / peripheral localization of DMs on mitotic chromosomes: DMs visualized by lacR-GFP
Description: Visualizing DM-integrated and free EBV vectors by in vivo lacR-GFP staining: One of the established cell lines, containing DMs tagged with lacO repeat, was infected with lacR-GFP retrovirus. The infected cells were subcloned by limited dilution to obtain sublines in which DMs are more uniformly labelled with lacR-GFP. For time lapse imaging, the same cell line was infected with H2B-CFP and lacR-YFP viruses simultaneously, and the double-labelled cells were subcloned by limited dilution.
Immunofluorescence staining: Cells were harvested by gentle pipetting, attached to slide glasses by cytospin (500 rpm, 1 minute, Shandon, Pittsburgh, Pa.), and fixed with 3.7% formaldehyde for 10 minutes. When indicated, cells were treated with either taxol (10 μM paclitaxel, Sigma Chemical Co., St. Louis, Mo.) or vinblastine (10 μg/ml, Sigma) for 3 hours prior to harvesting them in order to disrupt microtubules. Slides were washed with PBS three times, and treated with blocking buffer (2.5% BSA, 0.2M glycine, 0.1% TritonX-100) for 30 minutes.
Primary and secondary antibodies were diluted in the blocking buffer. Primary antibodies were rabbit anti EBNA-1 serum K67-3 (1:1000, kindly provided by Dr. Jaap Middeldorp, Free University Hospital, Amsterdam, the Netherlands), human CREST autoantiserum hACA-M (for detecting centromeres, 1:2000 dilution) (Sullivan et al., 1994), and monoclonal anti α-tubulin (for detecting microtubules, 1:2000 dilution, Sigma). Following incubation for 60 minutes at room temperature, glass slides were washed three times with PBS. Secondary antibodies were Texas-Red conjugated anti-rabbit IgG (1:500, Jackson ImmunoResearch, West Grove, Pa.), Cy5 conjugated goat anti-human IgG (1:1000, Amersham, Piscataway, N.J.), and rhodamine conjugated anti mouse IgG (1:1000, Boehringer Mannheim), respectively. Following incubation for 60 minutes at room temperature, slides were washed three times with PBS, and chromosomes were counterstained with DAPI (1 μg/ml). Fluorescence of lacR-GFP was preserved well by this protocol.
Microscopy: All images appearing in the Figures were collected using a DeltaVision microscope system (Applied Precision Inc. Issaquah, Wash.) with either a 63×/NA 1.4 or a 100×/NA 1.35 oil immersion objective. For fixed specimens (except for the images of FIG. 2), three-dimensional data sets were collected to visualize EBV vectors and DMs as they distributed in multiple focal planes. Optical sections were collected at 0.2-μm focal intervals; pixel size was 0.111 μm for 63× objective and 0.0669 μm for 100× objective. Out-of-focus contamination was removed from each optical section via deconvolution processing and two-dimensional images were created by projecting the three-dimensional data stacks using the software supplied with the DeltaVision system.
The ability to readily visualize DMs without using FISH protocol has enabled the investigation of the mechanisms that contribute to their behavior during mitosis. The possibility that DMs are held away from the spindle poles by the microtubule-mediated antipolar force, to which normal chromosome arms are also known to be subjected (Fuller, 1995; Rieder et al., 1986) was examined. DM-labelled cells were treated with either a microtubule stabilizer (taxol) or destabilizer (vinblastine). DMs and microtubules were visualized by lacR-GFP and immunofluorescence staining, respectively.

Row | SMILES | appearance of microtubules (immunofluorescence) | chromosome organization | association of DMs with chromosomes | peripheral localization of DMs on mitotic chromosomes
1 | CC(=O)O[C@H]1C(=O)[C@@]2(C)[C@H]([C@H](OC(=O)c3ccccc3)[C@]3(O)C[C@H](OC(=O)[C@H](O)[C@@H](NC(=O)c4ccccc4)c4ccccc4)C(C)=C1C3(C)C)[C@]1(OC(C)=O)CO[C@@H]1C[C@@H]2O [taxol, paclitaxel] | multiple aster-like structures | completely disrupted | still associated closely with chromosomes | no longer attached to the periphery of clustered chromosomes
2 | CC[C@]1(O)C[C@@H]2CN(CCc3c([nH]c4ccccc34)[C@@](C(=O)OC)(c3cc4c(cc3OC)N(C)[C@H]3[C@@](O)(C(=O)OC)[C@H](OC(C)=O)[C@]5(CC)C=CCN6CC[C@]43[C@@H]65)C2)C1 [vinblastine] | rod-like microtubules | completely disrupted | still associated closely with chromosomes | no longer attached to the periphery of clustered chromosomes
